{
  "source": "ChEMBL document CHEMBL4689842",
  "about": "“EUbOPEN Chemogenomics Library wave 1” (2021); also: filed as whole numbers so only -1 and 0 and 1 occur",
  "format_in_all_cases": "toxicity, cell-based",
  "key": {"U2OS": {"system": "U2OS", "assay": "Incucyte cell viability with U2OS", "details": "human, 10 µM, compound concentration 10 uM"}, "HEK-293T": {"system": "HEK-293T", "assay": "Incucyte cell viability with HEK293T", "details": "human, 10 µM, compound concentration 10 uM"}, "Fibroblast": {"system": "Fibroblast", "assay": "Incucyte cell viability with human fibroblast", "details": "10 µM, compound concentration 10 uM"}, "[1]": {"details": "0 h, replicate number 1, timepoint 0 hours"}, "[2]": {"details": "6 h, replicate number 1, timepoint 6 hours"}, "[3]": {"details": "12 h, replicate number 1, timepoint 12 hours"}, "[4]": {"details": "18 h, replicate number 1, timepoint 18 hours"}, "[5]": {"details": "24 h, replicate number 1, timepoint 24 hours"}},
  "data": [
    {"smiles": "C[C@@H]1CCN(C(=O)CC#N)C[C@@H]1N(C)c1ncnc2[nH]ccc12.O=C(O)CC(O)(CC(=O)O)C(=O)O", "note": "[TOFACITINIB CITRATE]", "values": [
      {"measurement": "Growth Rate", "setting": "U2OS; [1]", "value": 0},
      {"measurement": "Growth Rate", "setting": "U2OS; [2]", "value": 0},
      {"measurement": "Growth Rate", "setting": "U2OS; [3]", "value": 0},
      {"measurement": "Growth Rate", "setting": "U2OS; [4]", "value": 0},
      {"measurement": "Growth Rate", "setting": "U2OS; [5]", "value": 0},
      {"measurement": "Growth Rate", "setting": "HEK-293T; [1]", "value": 1},
      {"measurement": "Growth Rate", "setting": "HEK-293T; 0 h, replicate number 2, timepoint 0 hours", "value": 0},
      {"measurement": "Growth Rate", "setting": "HEK-293T; [2]", "value": 0},
      {"measurement": "Growth Rate", "setting": "HEK-293T; [3]", "value": 0},
      {"measurement": "Growth Rate", "setting": "HEK-293T; 12 h, replicate number 2, timepoint 12 hours", "value": 1},
      {"measurement": "Growth Rate", "setting": "HEK-293T; [4]", "value": 1},
      {"measurement": "Growth Rate", "setting": "HEK-293T; [5]", "value": 1},
      {"measurement": "Growth Rate", "setting": "Fibroblast; [1]", "value": 0},
      {"measurement": "Growth Rate", "setting": "Fibroblast; [3]", "value": 1},
      {"measurement": "Growth Rate", "setting": "Fibroblast; [4]", "value": 1},
      {"measurement": "Growth Rate", "setting": "Fibroblast; [5]", "value": 1}
    ]}
  ]
}
